BindingDB's records for doi:10.7270/Q24X5684 (Nmmlsc, 2010)
pEC50: −log10 of the molar value.

Target: T1, Integrin alpha-4 (Homo sapiens, UniProt P13612)
T1 sequence (P13612 whole entry): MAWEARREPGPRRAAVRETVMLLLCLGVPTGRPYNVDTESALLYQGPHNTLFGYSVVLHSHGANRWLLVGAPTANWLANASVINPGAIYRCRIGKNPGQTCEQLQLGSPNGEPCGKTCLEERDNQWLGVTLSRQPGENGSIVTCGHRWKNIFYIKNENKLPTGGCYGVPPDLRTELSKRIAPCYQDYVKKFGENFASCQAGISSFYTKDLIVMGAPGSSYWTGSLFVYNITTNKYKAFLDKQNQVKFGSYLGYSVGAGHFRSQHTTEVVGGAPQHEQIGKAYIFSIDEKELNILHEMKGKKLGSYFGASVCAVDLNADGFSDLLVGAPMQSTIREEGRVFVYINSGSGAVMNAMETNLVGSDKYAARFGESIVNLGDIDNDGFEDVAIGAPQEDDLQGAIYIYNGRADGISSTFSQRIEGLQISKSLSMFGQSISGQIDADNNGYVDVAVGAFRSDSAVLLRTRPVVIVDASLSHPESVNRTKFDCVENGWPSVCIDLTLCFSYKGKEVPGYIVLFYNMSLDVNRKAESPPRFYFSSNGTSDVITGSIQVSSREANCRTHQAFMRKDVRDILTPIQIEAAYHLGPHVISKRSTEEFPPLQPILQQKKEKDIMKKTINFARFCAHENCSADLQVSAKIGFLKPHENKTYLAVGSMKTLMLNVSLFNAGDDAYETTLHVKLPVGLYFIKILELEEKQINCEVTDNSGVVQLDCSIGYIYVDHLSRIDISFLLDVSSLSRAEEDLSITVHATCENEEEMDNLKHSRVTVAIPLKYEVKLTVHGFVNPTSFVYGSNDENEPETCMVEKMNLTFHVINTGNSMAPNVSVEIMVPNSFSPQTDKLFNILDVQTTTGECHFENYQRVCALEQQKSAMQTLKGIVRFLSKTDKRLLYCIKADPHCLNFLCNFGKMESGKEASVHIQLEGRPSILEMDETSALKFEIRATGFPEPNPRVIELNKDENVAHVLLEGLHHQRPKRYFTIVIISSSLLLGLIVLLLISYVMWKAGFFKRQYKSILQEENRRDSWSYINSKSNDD
Experiment: allosteric modulators of alpha4 integrin VLA-4 – cell-based, LIBS antibody binding, flow cytometry, SAR follow-up (AID 488791)

Question: `Cc1ccc(NC(=O)c2cc(-n3c(O)ccc3O)ccc2N2CCOCC2)cc1` was tested. Which pEC50 did it give?
Answer: 4.79

Question: With `Cc1ccc(NC(=O)c2cc(-n3c(O)ccc3O)ccc2N2CCOCC2)cc1Cl` [VU0419498-1] as the compound, how does the pEC50 read?
Answer: 4.63
